For 23 compounds, IC50 results are on record in patent publication US20050019424A1, “Anti-angiogenesis combination therapies comprising pyridazine or pyridine derivatives” (priority 2001, published 2005).

By pIC50 is commonly meant the negative decadic logarithm of the IC50, by convention in mol/L.

In one assay the target is CYP3A4 (Homo sapiens, UniProt P08684). In words: biochemical.
The target of a further assay is T1, CYP1A2 (Homo sapiens, UniProt P05177).
T1 sequence (P05177 1-516): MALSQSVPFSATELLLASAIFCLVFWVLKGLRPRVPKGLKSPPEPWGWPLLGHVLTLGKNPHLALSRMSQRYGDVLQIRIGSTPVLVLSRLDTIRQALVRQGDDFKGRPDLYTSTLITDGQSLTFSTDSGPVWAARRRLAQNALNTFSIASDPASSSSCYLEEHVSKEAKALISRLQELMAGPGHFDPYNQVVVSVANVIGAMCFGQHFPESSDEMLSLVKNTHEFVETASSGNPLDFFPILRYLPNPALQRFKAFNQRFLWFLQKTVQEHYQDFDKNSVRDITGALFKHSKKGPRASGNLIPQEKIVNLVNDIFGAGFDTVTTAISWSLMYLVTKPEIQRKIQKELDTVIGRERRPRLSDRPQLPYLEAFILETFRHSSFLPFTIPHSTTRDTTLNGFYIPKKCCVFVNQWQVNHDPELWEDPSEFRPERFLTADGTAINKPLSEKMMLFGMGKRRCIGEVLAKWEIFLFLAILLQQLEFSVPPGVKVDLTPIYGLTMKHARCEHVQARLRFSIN
In words: biochemical.

A further assay addresses T2, CYP2C9 (Homo sapiens, UniProt P11712).
T2 construct: purchased GENTEST Corporation P258
In words: Fluorometric cytochrome P450 inhibition assay, CYP2C9. It is filed as in vitro ADME. The conditions noted are these: cDNA-expressed human CYP2C9 Supersomes, substrate DBF, 5 point dose response; read-out: CYP2C9 Inh. IC50.

The target in the next assay is CYP2C19 (Homo sapiens, UniProt P33261). In words: biochemical.
CYP2C19, sequence (P33261 whole entry): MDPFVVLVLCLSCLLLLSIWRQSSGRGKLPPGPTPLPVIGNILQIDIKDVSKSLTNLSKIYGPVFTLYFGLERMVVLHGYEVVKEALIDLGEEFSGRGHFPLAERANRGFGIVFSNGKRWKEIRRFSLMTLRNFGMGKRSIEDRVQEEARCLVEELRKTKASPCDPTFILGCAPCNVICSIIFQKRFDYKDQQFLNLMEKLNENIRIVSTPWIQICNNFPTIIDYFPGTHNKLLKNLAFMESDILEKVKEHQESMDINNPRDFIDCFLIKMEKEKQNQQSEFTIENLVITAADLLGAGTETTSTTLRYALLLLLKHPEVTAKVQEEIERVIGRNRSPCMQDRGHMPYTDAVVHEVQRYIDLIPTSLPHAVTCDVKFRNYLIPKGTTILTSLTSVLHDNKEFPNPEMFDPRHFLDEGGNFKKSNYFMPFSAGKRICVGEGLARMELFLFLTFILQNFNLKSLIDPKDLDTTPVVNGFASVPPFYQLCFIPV
Another assay addresses CYP2D6 (Homo sapiens, UniProt P10635). In words: biochemical.

pIC50: −log10 of the molar value.

CYP2D6, sequence (P10635 whole entry): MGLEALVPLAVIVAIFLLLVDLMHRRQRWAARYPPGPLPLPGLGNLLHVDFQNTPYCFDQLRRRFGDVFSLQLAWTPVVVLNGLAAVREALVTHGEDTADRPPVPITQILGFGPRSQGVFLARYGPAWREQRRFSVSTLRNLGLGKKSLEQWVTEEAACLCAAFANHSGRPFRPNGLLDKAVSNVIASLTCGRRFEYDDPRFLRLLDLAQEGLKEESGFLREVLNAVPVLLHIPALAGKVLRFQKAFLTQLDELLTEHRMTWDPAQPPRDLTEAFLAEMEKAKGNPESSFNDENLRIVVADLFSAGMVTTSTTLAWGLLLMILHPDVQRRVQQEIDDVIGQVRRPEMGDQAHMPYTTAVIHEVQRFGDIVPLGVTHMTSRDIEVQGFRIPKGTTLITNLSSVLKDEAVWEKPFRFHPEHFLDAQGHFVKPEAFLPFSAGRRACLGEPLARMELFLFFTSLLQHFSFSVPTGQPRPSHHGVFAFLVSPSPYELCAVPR
CYP3A4, sequence (P08684 whole entry): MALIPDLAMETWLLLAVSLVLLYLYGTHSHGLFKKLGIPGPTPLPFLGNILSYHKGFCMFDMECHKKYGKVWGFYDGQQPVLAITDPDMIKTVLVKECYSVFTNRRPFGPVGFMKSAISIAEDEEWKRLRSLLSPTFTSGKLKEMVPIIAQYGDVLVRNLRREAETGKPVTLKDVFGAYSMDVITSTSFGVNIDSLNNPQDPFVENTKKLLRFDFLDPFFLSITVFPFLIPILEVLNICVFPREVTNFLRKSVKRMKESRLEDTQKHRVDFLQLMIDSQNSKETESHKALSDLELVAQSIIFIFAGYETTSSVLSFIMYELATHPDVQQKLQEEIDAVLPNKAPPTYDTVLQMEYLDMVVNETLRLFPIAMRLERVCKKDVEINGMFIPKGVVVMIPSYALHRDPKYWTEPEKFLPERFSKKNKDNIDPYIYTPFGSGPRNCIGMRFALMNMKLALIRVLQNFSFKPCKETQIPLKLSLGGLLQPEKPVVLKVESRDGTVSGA
T2 sequence (P11712 whole entry): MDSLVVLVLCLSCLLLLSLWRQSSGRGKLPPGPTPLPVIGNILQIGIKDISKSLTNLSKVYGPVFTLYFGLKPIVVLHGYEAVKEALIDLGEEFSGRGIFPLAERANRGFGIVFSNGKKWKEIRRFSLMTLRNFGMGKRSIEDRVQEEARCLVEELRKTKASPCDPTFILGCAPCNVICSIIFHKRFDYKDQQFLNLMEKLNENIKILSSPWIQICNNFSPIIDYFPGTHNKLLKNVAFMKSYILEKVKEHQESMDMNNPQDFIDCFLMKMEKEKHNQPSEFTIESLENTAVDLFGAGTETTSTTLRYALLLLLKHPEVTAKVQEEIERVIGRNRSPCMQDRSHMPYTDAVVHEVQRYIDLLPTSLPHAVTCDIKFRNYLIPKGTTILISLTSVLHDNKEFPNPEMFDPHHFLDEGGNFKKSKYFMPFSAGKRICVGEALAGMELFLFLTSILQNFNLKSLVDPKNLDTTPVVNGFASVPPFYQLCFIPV
Method for CYP1A2: (§1) The ability of the compounds described herein to inhibit cytochrome P450 activity was determined in vitro using cDNA-expressed human cytochrome P450 enzymes (Supersomes) obtained from GENTEST Corporation and various fluorescent probe substrates. Fluorometric Cytochrome P450 Inhibition assays were conducted in 96 well micotitre plates as described by GENTEST Corporation, Woburn Mass. […] Compounds were dissolved in 70% DMSO such that the concentration of DMSO in the assay was 0.7%. Varying concentrations of all test compounds (10 μM, 3 μM, 1 μM, 300 nM and 100 nM) were incubated with Supersomes individually expressing the five principal drug metabolizing cytochrome P450s, CYP1A2, 2C9, 2C19, 2D6, and 3A4 and their respective substrates. […] Incubations with known inhibitors of each P450 isoform were included as positive controls. Fluorescence per well was measured using a Spectramax Gemini XS (Molecular Devices) and IC50 values of the compounds tested were determined using the 5 point dose response. The sigmoidal dose response curves were generated by non linear regression using a four parameter logistic equation.
Method for CYP2C19: as §1
Method for CYP2C9: The ability of the compounds described herein to inhibit cytochrome P450 activity was determined in vitro using cDNA-expressed human cytochrome P450 enzymes (Supersomes) obtained from GENTEST Corporation and various fluorescent probe substrates. Fluorometric Cytochrome P450 Inhibition assays were conducted in 96 well micotitre plates as described by GENTEST Corporation, Woburn Mass. […] Compounds were dissolved in 70% DMSO such that the concentration of DMSO in the assay was 0.7%. […] Incubations with known inhibitors of each P450 isoform were included as positive controls. Fluorescence per well was measured using a Spectramax Gemini XS (Molecular Devices) and IC50 values of the compounds tested were determined using the 5 point dose response. The sigmoidal dose response curves were generated by non linear regression using a four parameter logistic equation.
Method for CYP2D6: as §1
Method for CYP3A4: as §1

With `NC(=O)c1cc(Cc2nnc(Nc3ccc(Cl)cc3)c3ccccc23)ccn1`, the pIC50 against CYP3A4 was 5.00; against CYP1A2 it was under 4.70; at CYP2C9 it was under 4.70; on CYP2C19, 4.82; against CYP2D6, under 4.70.

On to `CNC(=O)c1cc(Cc2nnc(Nc3ccc(Cl)cc3)c3ccccc23)ccn1`, for which the negative-log IC50 (pIC50) on CYP3A4 was 5.66; against CYP1A2, under 4.70; at CYP2C9, 5.24; on CYP2C19, 4.96; on CYP2D6 it was under 4.70.

As for `NC(=O)c1cc(COc2nnc(Nc3ccc(Cl)cc3)c3ccccc23)ccn1`, the pIC50 at CYP3A4 is 6.38; at CYP1A2 it was 5.82; at CYP2C9, 6.02; on CYP2C19 it was 5.27; against CYP2D6 it was 5.89.

In the case of `CNC(=O)c1cc(COc2nnc(Nc3ccc(Cl)cc3)c3ccccc23)ccn1`, the pIC50 against CYP3A4, at CYP1A2, at CYP2C9, against CYP2C19 and at CYP2D6 was under 4.70 each time.

Turning to `Clc1ccc(NC2=NN=C(OCc3ccncc3)C3OC=CC23)cc1` (stereo not shown), the pIC50 was 6.41 at CYP3A4; 6.18 against CYP1A2; 6.17 at CYP2C9; 5.77 against CYP2C19; 6.11 against CYP2D6.

For the compound `NC(=O)c1cc(COC2=NN=C(Nc3ccc(Cl)cc3)C3C=COC23)ccn1` (stereo not shown), the pIC50 against CYP3A4 was 5.68; on CYP1A2, 4.77; at CYP2C9, under 4.70; on CYP2C19, under 4.70; against CYP2D6 it was under 4.70.

Take `CNC(=O)c1cc(COC2=NN=C(Nc3ccc(Cl)cc3)C3C=COC23)ccn1` (stereo not shown): the pIC50 was 4.72 at CYP3A4; under 4.70 on CYP1A2; under 4.70 at CYP2C9; under 4.70 against CYP2C19; under 4.70 against CYP2D6.

With `CN(C)C(=O)c1cc(COC2=NN=C(Nc3ccc(Cl)cc3)C3C=COC23)ccn1` (stereo not shown), the negative logarithm of the IC50 (pIC50) on CYP3A4 was 4.96; against CYP1A2, 5.46; on CYP2C9, under 4.70; at CYP2C19, under 4.70; against CYP2D6, under 4.70.

With `O=C(NC1CC1)c1cc(COC2=NN=C(Nc3ccc(Cl)cc3)C3C=COC23)ccn1` (stereo not shown), the pIC50 was 5.48 at CYP3A4; under 4.70 on CYP1A2; under 4.70 at CYP2C9; under 4.70 on CYP2C19; under 4.70 against CYP2D6.

Take `Clc1ccc(NC2=NN=C(OCc3ccncc3)C3SC=CC23)cc1` (stereo not shown): the negative-log IC50 (pIC50) against CYP3A4 is 6.92; on CYP1A2 it was 6.30; at CYP2C9, 6.34; against CYP2C19, 5.12; at CYP2D6 it was 6.40.

With `NC(=O)c1cc(COC2=NN=C(Nc3ccc(Cl)cc3)C3C=CSC23)ccn1` (stereo not shown), the negative logarithm of the IC50 (pIC50) was 6.00 against CYP3A4; 5.48 on CYP1A2; 5.33 on CYP2C9; under 4.70 at CYP2C19; 4.85 at CYP2D6.

For the compound `CNC(=O)c1cc(COC2=NN=C(Nc3ccc(Cl)cc3)C3C=CSC23)ccn1` (stereo not shown), the pIC50 against CYP3A4, against CYP1A2, at CYP2C9, at CYP2C19 and on CYP2D6 was under 4.70 throughout.

As for `Clc1ccc(Nc2ncc(Cc3ccncc3)c3ccccc23)cc1`, the pIC50 on CYP3A4 is 6.85; at CYP1A2, 6.77; on CYP2C9, 6.96; against CYP2C19, 7.15; on CYP2D6 it was 6.68.

With `NC(=O)c1cc(Cc2cnc(Nc3ccc(Cl)cc3)c3ccccc23)ccn1`, the pIC50 against CYP3A4 was 5.92; on CYP1A2, 5.48; at CYP2C9, 5.72; against CYP2C19, 5.92; at CYP2D6 it was 4.82.

As for `CNC(=O)c1cc(Cc2cnc(Nc3ccc(Cl)cc3)c3ccccc23)ccn1`, the negative logarithm of the IC50 (pIC50) against CYP3A4 was 5.89; on CYP1A2, 5.42; at CYP2C9, 5.80; at CYP2C19 it was 6.07; against CYP2D6, 5.00.

In the case of `Clc1ccc(Nc2nnc(Nc3ccc4ncsc4c3)c3sccc23)cc1`, the negative-log IC50 (pIC50) was under 4.70 at CYP3A4; under 4.70 at CYP1A2; 5.41 on CYP2C9; 5.00 against CYP2C19; under 4.70 at CYP2D6.

For `CNC(=O)c1cc(COc2nnc(Nc3ccc(OC)cc3)c3ccoc23)ccn1`, the negative logarithm of the IC50 (pIC50) is 5.74 at CYP3A4; 5.38 on CYP1A2; under 4.70 on CYP2C9; under 4.70 on CYP2C19; under 4.70 at CYP2D6.

As to `CNC(=O)c1cc(COc2nnc(Nc3ccc(F)cc3)c3ccoc23)ccn1`, the negative-log IC50 (pIC50) against CYP3A4, against CYP1A2, on CYP2C9 and against CYP2D6 was under 4.70 in each case.

With `CNC(=O)c1cc(COc2nnc(Nc3cccc(C)c3)c3ccsc23)ccn1`, the negative logarithm of the IC50 (pIC50) on CYP3A4, on CYP1A2, on CYP2C9 and on CYP2D6 was under 4.70 each time.

Take `CNC(=O)c1cc(COc2nnc(Nc3ccc4c(c3)CCC4)c3ccoc23)ccn1`: the pIC50 against CYP3A4 was 6.32; on CYP1A2, 5.35; on CYP2C9 it was 5.40; against CYP2C19 it was under 4.70; against CYP2D6 it was under 4.70.

For `CNC(=O)c1cc(COc2nnc(Nc3ccc4c(c3)OCC4)c3ccoc23)ccn1`, the negative logarithm of the IC50 (pIC50) was 5.12 against CYP3A4; 4.96 on CYP1A2; under 4.70 at CYP2C9; under 4.70 at CYP2C19; under 4.70 against CYP2D6.

As for `Clc1ccc(Nc2nnc(Cc3ccncc3)c3ccccc23)cc1` [WO 98/35958 (Example 4), reference compound], the pIC50 was 5.83 against CYP1A2, 6.19 at CYP2C9, 6.62 against CYP2C19 and 6.48 against CYP2D6.

Turning to `Clc1ccc(Nc2nnc(OCc3ccncc3)c3ccccc23)cc1` [WO 98/35958 (Example 50), reference compound], the pIC50 against CYP3A4 is 7.15; on CYP1A2, 6.62; at CYP2C9 it was 6.54; against CYP2C19, 6.10; at CYP2D6, 6.48.
